Reference: ChEMBL document CHEMBL4665642, “Anticancer profile of newly synthesized BRAF inhibitors possess 5-(pyrimidin-4-yl)imidazo[2,1-b]thiazole scaffold” (Bioorg Med Chem, 2019)

Tests used:
[1] = test system: MOLT-4; assay: Cytotoxicity against human MOLT-4 cells assessed as cell viability at 10 uM incubated for 48 hrs by sulforhodamine B assay relative to control; type: functional; conditions: read-out: Activity
[2] = test system: EKVX; assay: Cytotoxicity against human EKVX cells assessed as cell viability at 10 uM incubated for 48 hrs by sulforhodamine B assay relative to control; type: functional; conditions: read-out: Activity
[3] = test system: HL-60(TB); assay: Cytotoxicity against human HL-60(TB) cells assessed as cell viability at 10 uM incubated for 48 hrs by sulforhodamine B assay relative to control; type: functional; conditions: read-out: Activity
[4] = target: Serine/threonine-protein kinase B-raf (Homo sapiens, UniProt P15056); assay: Inhibition of human BRAF using MEK1 as substrate by […] assay
Sequence of Serine/threonine-protein kinase B-raf (Homo sapiens, UniProt P15056) (P15056 whole entry): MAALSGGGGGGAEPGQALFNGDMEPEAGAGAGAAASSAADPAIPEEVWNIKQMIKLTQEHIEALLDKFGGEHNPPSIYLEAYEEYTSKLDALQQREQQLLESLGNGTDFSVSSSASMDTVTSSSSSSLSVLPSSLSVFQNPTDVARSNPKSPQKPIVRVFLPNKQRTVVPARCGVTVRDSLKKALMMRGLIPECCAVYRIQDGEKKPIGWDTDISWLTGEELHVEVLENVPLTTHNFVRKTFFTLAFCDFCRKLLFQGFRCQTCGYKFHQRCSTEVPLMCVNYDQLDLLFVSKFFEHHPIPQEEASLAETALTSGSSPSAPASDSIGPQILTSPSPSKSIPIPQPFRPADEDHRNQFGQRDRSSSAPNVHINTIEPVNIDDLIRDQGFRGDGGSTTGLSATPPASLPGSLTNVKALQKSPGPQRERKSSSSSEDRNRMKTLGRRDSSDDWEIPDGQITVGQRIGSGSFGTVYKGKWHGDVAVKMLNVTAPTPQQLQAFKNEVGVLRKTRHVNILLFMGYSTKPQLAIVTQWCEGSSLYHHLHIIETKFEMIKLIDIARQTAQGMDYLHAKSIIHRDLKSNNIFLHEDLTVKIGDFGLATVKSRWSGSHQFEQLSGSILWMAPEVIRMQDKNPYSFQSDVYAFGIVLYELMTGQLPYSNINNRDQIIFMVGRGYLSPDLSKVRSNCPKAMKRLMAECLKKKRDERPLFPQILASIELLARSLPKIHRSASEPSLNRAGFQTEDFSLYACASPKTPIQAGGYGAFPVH

[5] = test system: A549; assay: Cytotoxicity against human A549 cells assessed as cell viability at 10 uM incubated for 48 hrs by sulforhodamine B assay relative to control; type: functional; conditions: read-out: Activity
[6] = test system: SK-MEL-2; assay: Cytotoxicity against human SK-MEL-2 cells assessed as cell viability at 10 uM incubated for 48 hrs by sulforhodamine B assay relative to control; type: functional; conditions: read-out: Activity
[7] = test system: SF-539; assay: Cytotoxicity against human SF-539 cells assessed as cell viability at 10 uM incubated for 48 hrs by sulforhodamine B assay relative to control; type: functional; conditions: read-out: Activity
[8] = test system: SK-MEL-5; assay: Cytotoxicity against human SK-MEL-5 cells assessed as cell viability at 10 uM incubated for 48 hrs by sulforhodamine B assay relative to control; type: functional; conditions: read-out: Activity
[9] = test system: K562; assay: Cytotoxicity against human K562 cells assessed as cell viability at 10 uM incubated for 48 hrs by sulforhodamine B assay relative to control; type: functional; conditions: read-out: Activity
[10] = target: RAF proto-oncogene serine/threonine-protein kinase (Homo sapiens, UniProt P04049); assay: Inhibition of human CRAF using MEK1 as substrate by [gamma-33P]-ATP assay
Sequence of RAF proto-oncogene serine/threonine-protein kinase (P04049 whole entry): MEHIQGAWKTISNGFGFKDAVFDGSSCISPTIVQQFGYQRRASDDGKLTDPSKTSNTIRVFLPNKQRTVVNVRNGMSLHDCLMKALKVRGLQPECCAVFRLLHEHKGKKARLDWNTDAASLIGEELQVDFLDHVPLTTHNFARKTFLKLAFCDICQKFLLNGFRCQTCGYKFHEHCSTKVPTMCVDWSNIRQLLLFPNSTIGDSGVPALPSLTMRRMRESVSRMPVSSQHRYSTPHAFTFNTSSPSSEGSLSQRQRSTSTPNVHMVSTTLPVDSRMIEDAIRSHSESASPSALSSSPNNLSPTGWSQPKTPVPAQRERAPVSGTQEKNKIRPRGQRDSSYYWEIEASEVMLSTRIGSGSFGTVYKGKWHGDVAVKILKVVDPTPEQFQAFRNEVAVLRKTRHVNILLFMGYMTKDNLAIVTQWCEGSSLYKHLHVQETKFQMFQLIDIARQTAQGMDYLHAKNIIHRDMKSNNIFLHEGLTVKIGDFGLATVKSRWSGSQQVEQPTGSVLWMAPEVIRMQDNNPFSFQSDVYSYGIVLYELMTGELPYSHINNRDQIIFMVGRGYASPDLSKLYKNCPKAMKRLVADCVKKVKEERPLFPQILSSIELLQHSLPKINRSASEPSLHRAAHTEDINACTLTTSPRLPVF

[11] = test system: L132; assay: Cytotoxicity against human L132 cells assessed as reduction in cell viability by MTT assay; type: cell-based
[12] = target: Serine/threonine-protein kinase B-raf (Homo sapiens, UniProt P15056, V600E); assay: Inhibition of human BRAF V600E mutant using MEK1 as substrate by […] assay
Sequence of Serine/threonine-protein kinase B-raf (Homo sapiens, UniProt P15056, V600E) (P15056 2-766 V600E limits assumed): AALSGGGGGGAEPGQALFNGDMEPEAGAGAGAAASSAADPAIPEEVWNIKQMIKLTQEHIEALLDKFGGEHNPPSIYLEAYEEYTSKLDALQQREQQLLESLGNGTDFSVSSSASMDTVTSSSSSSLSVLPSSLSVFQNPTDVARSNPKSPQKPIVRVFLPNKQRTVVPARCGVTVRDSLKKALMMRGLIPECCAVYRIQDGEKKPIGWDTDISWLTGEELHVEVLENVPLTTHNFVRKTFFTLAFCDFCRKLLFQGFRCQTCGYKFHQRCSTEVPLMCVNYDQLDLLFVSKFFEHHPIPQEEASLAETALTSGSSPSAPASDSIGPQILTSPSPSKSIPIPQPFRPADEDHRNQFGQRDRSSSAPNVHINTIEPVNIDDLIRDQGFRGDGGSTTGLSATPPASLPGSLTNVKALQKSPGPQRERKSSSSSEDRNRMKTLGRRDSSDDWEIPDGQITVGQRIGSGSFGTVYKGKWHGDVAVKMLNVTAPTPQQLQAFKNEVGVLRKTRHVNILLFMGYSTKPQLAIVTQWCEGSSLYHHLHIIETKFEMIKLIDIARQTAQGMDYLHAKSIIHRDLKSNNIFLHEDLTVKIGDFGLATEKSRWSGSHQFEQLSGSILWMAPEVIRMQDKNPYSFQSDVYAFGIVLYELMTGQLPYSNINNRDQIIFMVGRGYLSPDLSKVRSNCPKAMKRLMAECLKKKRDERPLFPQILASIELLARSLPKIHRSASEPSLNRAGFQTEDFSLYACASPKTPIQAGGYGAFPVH

[13] = test system: SK-MEL-28; assay: Cytotoxicity against human SK-MEL-28 cells assessed as reduction in cell viability by MTT assay; type: functional, cell-based
[14] = test system: PC-3; assay: Cytotoxicity against human PC-3 cells assessed as cell viability at 10 uM incubated for 48 hrs by sulforhodamine B assay relative to control; type: functional; conditions: read-out: Activity
[15] = test system: T47D; assay: Cytotoxicity against human T47D cells assessed as cell viability at 10 uM incubated for 48 hrs by sulforhodamine B assay relative to control; type: functional; conditions: read-out: Activity
[16] = test system: OVCAR-5; assay: Cytotoxicity against human OVCAR-5 cells assessed as cell viability at 10 uM incubated for 48 hrs by sulforhodamine B assay relative to control; type: functional; conditions: read-out: Activity
[17] = test system: HOP-62; assay: Cytotoxicity against human HOP-62 cells assessed as cell viability at 10 uM incubated for 48 hrs by sulforhodamine B assay relative to control; type: functional; conditions: read-out: Activity
[18] = test system: HCC 2998; assay: Cytotoxicity against human HCC 2998 cells assessed as cell viability at 10 uM incubated for 48 hrs by sulforhodamine B assay relative to control; type: functional; conditions: read-out: Activity
[19] = test system: OVCAR-4; assay: Cytotoxicity against human OVCAR-4 cells assessed as cell viability at 10 uM incubated for 48 hrs by sulforhodamine B assay relative to control; type: functional; conditions: read-out: Activity
[20] = test system: IGROV-1; assay: Cytotoxicity against human IGROV-1 cells assessed as cell viability at 10 uM incubated for 48 hrs by sulforhodamine B assay relative to control; type: functional; conditions: read-out: Activity
[21] = test system: SNB-19; assay: Cytotoxicity against human SNB-19 cells assessed as cell viability at 10 uM incubated for 48 hrs by sulforhodamine B assay relative to control; type: functional; conditions: read-out: Activity
[22] = test system: MCF7; assay: Cytotoxicity against human MCF7 cells assessed as cell viability at 10 uM incubated for 48 hrs by sulforhodamine B assay relative to control; type: functional; conditions: read-out: Activity
[23] = test system: A-375; assay: Cytotoxicity against human A-375 cells assessed as reduction in cell viability by MTT assay; type: functional, cell-based
[24] = test system: UO-31; assay: Cytotoxicity against human UO-31 cells assessed as cell viability at 10 uM incubated for 48 hrs by sulforhodamine B assay relative to control; type: functional; conditions: read-out: Activity
[25] = test system: RPMI-8226; assay: Cytotoxicity against human RPMI-8226 cells assessed as cell viability at 10 uM incubated for 48 hrs by sulforhodamine B assay relative to control; type: functional; conditions: read-out: Activity

Compound | viability at 10 µM [1] [%] | viability at 10 µM [2] [%] | viability at 10 µM [3] [%] | viability at 10 µM [5] [%] | viability at 10 µM [6] [%] | viability at 10 µM [7] [%] | viability at 10 µM [8] [%] | viability at 10 µM [9] [%] | IC50 [13] [nM] | viability at 10 µM [14] [%] | viability at 10 µM [15] [%] | viability at 10 µM [16] [%] | viability at 10 µM [17] [%] | viability at 10 µM [18] [%] | viability at 10 µM [19] [%] | viability at 10 µM [20] [%] | viability at 10 µM [21] [%] | viability at 10 µM [22] [%] | IC50 [23] [nM] | viability at 10 µM [24] [%] | further results
O=C(NCCNc1nccc(-c2c(-c3cccc(F)c3)nc3sccn23)n1)c1ccccc1 | 46.5 | 54.4 | 83.7 | 26.7 | 51.4 | 81.2 | 25.6 | 44 | 17000 | 62.9 | 34.5 | 79.9 | 77.5 | 73.8 | 55.4 | 16.5 | 63.5 | 23.7 | 5060 | 22.8 | IC50 [4]: 162 nM; IC50 [10]: 312 nM; IC50 [11]: 200000 nM; IC50 [12]: 37 nM; viability at 10 µM [25]: 45.7%
O=C(NCCNc1nccc(-c2c(-c3cccc(F)c3)nc3sccn23)n1)c1ccc(Cl)cc1 | 65.7 | 63.2 | 99.2 | 34.8 | 62.5 | 90 | 33.6 | 54.4 | 8160 | 72.5 | 49 | 88.3 | 91.9 | 90.1 | 77.9 | 22.5 | 71.9 | 27.7 | 2570 | 28.1 | IC50 [4]: 105 nM; IC50 [10]: 120 nM; IC50 [12]: 27.2 nM; viability at 10 µM [25]: 62.4%
Cc1ccc(S(=O)(=O)NCCCNc2nccc(-c3c(-c4cccc(F)c4)nc4sccn34)n2)cc1 | 53.5 | 78.1 | 119 | 73 | 86.1 | 95.3 | 57.3 | 52 | 9500 | 67.7 | 34.5 | 111 | 101 | 98.2 | 66.2 | 37.8 | 92.2 | 69.4 | 8380 | 33.8 | IC50 [4]: 182 nM; IC50 [10]: 143 nM; IC50 [12]: 89 nM; viability at 10 µM [25]: 68.2%
O=S(=O)(NCCCNc1nccc(-c2c(-c3cccc(F)c3)nc3sccn23)n1)c1ccccc1 | 37.1 | 65.4 | 101 | 63 | 65.1 | 99.1 | 30.7 | 34.3 | 6850 | 53.5 | 14.4 | 121 | 98.9 | 120 | 54.8 | 35.2 | 93.5 | 50.8 | 6600 | 39 | IC50 [11]: > 400000 nM; viability at 10 µM [25]: 48%
O=S(=O)(NCCCNc1nccc(-c2c(-c3cccc(F)c3)nc3sccn23)n1)c1ccc(Br)cc1 | 33.8 | 57.4 | 75.9 | 55.1 | 61.4 | 98 | 21.2 | 25.4 | 9400 | 40.8 | 13.7 | 110 | 94.4 | 96.9 | 34.2 | 24.4 | 84.5 | 41.9 | 7040 | 31.6 | IC50 [4]: 22.9 nM; IC50 [10]: 18.6 nM; IC50 [12]: 9.3 nM; viability at 10 µM [25]: 39.4%
O=S(=O)(NCCCNc1nccc(-c2c(-c3cccc(F)c3)nc3sccn23)n1)c1ccc(Cl)cc1 | 48.3 | 75.4 | 106 | 66.9 | 79.9 | 99.3 | 40.9 | 31.7 | 8450 | 52 | 25.6 | 125 | 102 | 123 | 61.4 | 42.7 | 93 | 61.7 | 5900 | 41.8 | IC50 [4]: 49.6 nM; IC50 [10]: 34 nM; IC50 [12]: 16.2 nM; viability at 10 µM [25]: 55.3%
O=S(=O)(NCCNc1nccc(-c2c(-c3cccc(F)c3)nc3sccn23)n1)c1ccc(C(F)(F)F)cc1 | 57.5 | 86.5 | 121 | 72.4 | 98.8 | 103 | 84 | 73.1 | 8450 | 57 | 62.5 | 122 | 102 | 111 | 85.4 | 56.6 | 94.8 | 59.3 | 7440 | 51.7 | IC50 [4]: 85.2 nM; IC50 [10]: 88.4 nM; IC50 [12]: 22.3 nM; viability at 10 µM [25]: 83.8%
